# Experimental data taken from article PMC11062894, “Protein-based bandpass filters for controlling cellular signaling with chemical inputs” (Nature Chemical Biology, 2023).
# Where “and” joins values, the source holds several entries; their conditions need not be identical. Equal values may be shown once.
# Test system: GEMS receptors with CBPvene (Bcl2–LD3 and Bcl2high variants), STAT3-driven SEAP in HEK293T cells
# Experiment: GEMS SEAP reporter assay, CBPvene (Bcl2high, LD3-v and Bcl2-v variants) with venetoclax
# Assay type: cell-based
# Conditions: for SEAP, replicate values: Supplementary Figure 8e
# [1] = SuppFigure 8b, LD3, venetoclax 10 nM
# [2] = SuppFigure 8b, LD3, venetoclax 31.6 nM
# [3] = SuppFigure 8b, LD3, venetoclax 100 nM
# [4] = SuppFigure 8b, LD3, venetoclax 316 nM
# [5] = SuppFigure 8b, LD3, venetoclax 1000 nM
# [6] = SuppFigure 8b, LD3, venetoclax 3160 nM
# [7] = SuppFigure 8b, LD3, venetoclax 10000 nM
# [8] = SuppFigure 8b, LD3v1, venetoclax 1 nM
# [9] = SuppFigure 8b, LD3v1, venetoclax 3.16 nM
# [10] = SuppFigure 8b, LD3v1, venetoclax 10 nM
# [11] = SuppFigure 8b, LD3v1, venetoclax 31.6 nM
# [12] = SuppFigure 8b, LD3v1, venetoclax 100 nM
# [13] = SuppFigure 8b, LD3v1, venetoclax 316 nM
# [14] = SuppFigure 8b, LD3v1, venetoclax 1000 nM
# [15] = SuppFigure 8b, LD3v1, venetoclax 3160 nM
# [16] = SuppFigure 8b, LD3v1, venetoclax 10000 nM
# [17] = SuppFigure 8b, LD3v2, venetoclax 1 nM
# [18] = SuppFigure 8b, LD3v2, venetoclax 3.16 nM
# [19] = SuppFigure 8b, LD3v2, venetoclax 10 nM
# [20] = SuppFigure 8b, LD3v2, venetoclax 31.6 nM
# [21] = SuppFigure 8b, LD3v2, venetoclax 100 nM
# [22] = SuppFigure 8b, LD3v2, venetoclax 316 nM
# [23] = SuppFigure 8b, LD3v2, venetoclax 1000 nM
# [24] = SuppFigure 8b, LD3v2, venetoclax 3160 nM
# [25] = SuppFigure 8b, LD3v2, venetoclax 10000 nM
# [26] = SuppFigure 8b, LD3v3, venetoclax 1 nM
# [27] = SuppFigure 8b, LD3v3, venetoclax 3.16 nM
# [28] = SuppFigure 8b, LD3v3, venetoclax 10 nM
# [29] = SuppFigure 8b, LD3v3, venetoclax 31.6 nM
# [30] = SuppFigure 8b, LD3v3, venetoclax 100 nM
# [31] = SuppFigure 8b, LD3v3, venetoclax 316 nM
# [32] = SuppFigure 8b, LD3v3, venetoclax 1000 nM
# [33] = SuppFigure 8b, LD3v3, venetoclax 3160 nM
# [34] = SuppFigure 8b, LD3v3, venetoclax 10000 nM
# [35] = SuppFigure 8c, LD3, venetoclax 1 nM
# [36] = SuppFigure 8c, LD3, venetoclax 3.16 nM
# [37] = SuppFigure 8c, LD3, venetoclax 10 nM
# [38] = SuppFigure 8c, LD3, venetoclax 31.6 nM
# [39] = SuppFigure 8c, LD3, venetoclax 100 nM
# [40] = SuppFigure 8c, LD3, venetoclax 316 nM
# [41] = SuppFigure 8c, LD3, venetoclax 1000 nM
# [42] = SuppFigure 8c, LD3, venetoclax 3160 nM
# [43] = SuppFigure 8c, LD3, venetoclax 10000 nM
# [44] = SuppFigure 8c, LD3v1, venetoclax 1 nM
# [45] = SuppFigure 8c, LD3v1, venetoclax 3.16 nM
# [46] = SuppFigure 8c, LD3v1, venetoclax 10 nM
# [47] = SuppFigure 8c, LD3v1, venetoclax 31.6 nM
# [48] = SuppFigure 8c, LD3v1, venetoclax 100 nM
# [49] = SuppFigure 8c, LD3v1, venetoclax 316 nM
# [50] = SuppFigure 8c, LD3v1, venetoclax 1000 nM
# [51] = SuppFigure 8c, LD3v1, venetoclax 3160 nM
# [52] = SuppFigure 8c, LD3v1, venetoclax 10000 nM
# [53] = SuppFigure 8c, LD3v2, venetoclax 1 nM
# [54] = SuppFigure 8c, LD3v2, venetoclax 3.16 nM
# [55] = SuppFigure 8c, LD3v2, venetoclax 10 nM
# [56] = SuppFigure 8c, LD3v2, venetoclax 31.6 nM
# [57] = SuppFigure 8c, LD3v2, venetoclax 100 nM
# [58] = SuppFigure 8c, LD3v2, venetoclax 316 nM
# [59] = SuppFigure 8c, LD3v2, venetoclax 1000 nM
# [60] = SuppFigure 8c, LD3v2, venetoclax 3160 nM
# [61] = SuppFigure 8c, LD3v2, venetoclax 10000 nM
# [62] = SuppFigure 8c, LD3v3, venetoclax 1 nM
# [63] = SuppFigure 8c, LD3v3, venetoclax 3.16 nM
# [64] = SuppFigure 8c, LD3v3, venetoclax 10 nM
# [65] = SuppFigure 8c, LD3v3, venetoclax 31.6 nM
# [66] = SuppFigure 8c, LD3v3, venetoclax 100 nM
# [67] = SuppFigure 8c, LD3v3, venetoclax 316 nM
# [68] = SuppFigure 8c, LD3v3, venetoclax 1000 nM
# [69] = SuppFigure 8c, LD3v3, venetoclax 3160 nM
# [70] = SuppFigure 8c, LD3v3, venetoclax 10000 nM
compound,measurement,setting,value
CC1(C)CCC(CN2CCN(c3ccc(C(=O)NS(=O)(=O)c4ccc(NCC5CCOCC5)c([N+](=O)[O-])c4)c(Oc4cnc5[nH]ccc5c4)c3)CC2)=C(c2ccc(Cl)cc2)C1 [Venetoclax],Normalized data (SEAP),[1],4.498
same,Raw data (SEAP),[1],18.9052
same,Normalized data (SEAP),[2],14.8552
same,Raw data (SEAP),[2],62.4429
same,Normalized data (SEAP),[3],43.1759
same,Raw data (SEAP),[3],181.487
same,Normalized data (SEAP),[4],91.7223
same,Raw data (SEAP),[4],385.549
same,Normalized data (SEAP),[5],100
same,Raw data (SEAP),[5],420.344
same,Normalized data (SEAP),[6],92.3499
same,Raw data (SEAP),[6],388.188
same,Normalized data (SEAP),[7],51.2329
same,Raw data (SEAP),[7],215.355
same,Normalized data (SEAP),[8],9.345
same,Raw data (SEAP),[8],17.9682
same,Normalized data (SEAP),[9],9.034
same,Raw data (SEAP),[9],17.3705
same,Normalized data (SEAP),[10],10.4886
same,Raw data (SEAP),[10],20.1681
same,Normalized data (SEAP),[11],19.5956
same,Raw data (SEAP),[11],37.6794
same,Normalized data (SEAP),[12],44.2027
same,Raw data (SEAP),[12],84.9952
same,Normalized data (SEAP),[13],100
same,Raw data (SEAP),[13],192.285
same,Normalized data (SEAP),[14],87.7314
same,Raw data (SEAP),[14],168.695
same,Normalized data (SEAP),[15],49.2054
same,Raw data (SEAP),[15],94.6147
same,Normalized data (SEAP),[16],19.8616
same,Raw data (SEAP),[16],38.191
same,Normalized data (SEAP),[17],3.604
same,Raw data (SEAP),[17],12.0656
same,Normalized data (SEAP),[18],3.9805
same,Raw data (SEAP),[18],13.3245
same,Normalized data (SEAP),[19],4.834
same,Raw data (SEAP),[19],16.18
same,Normalized data (SEAP),[20],12.8068
same,Raw data (SEAP),[20],42.87
same,Normalized data (SEAP),[21],33.7173
same,Raw data (SEAP),[21],112.867
same,Normalized data (SEAP),[22],77.9659
same,Raw data (SEAP),[22],260.986
same,Normalized data (SEAP),[23],100
same,Raw data (SEAP),[23],334.744
same,Normalized data (SEAP),[24],66.077
same,Raw data (SEAP),[24],221.189
same,Normalized data (SEAP),[25],30.9558
same,Raw data (SEAP),[25],103.623
same,Normalized data (SEAP),[26],59.1038
same,Raw data (SEAP),[26],11.2669
same,Normalized data (SEAP),[27],71.809
same,Raw data (SEAP),[27],13.6889
same,Normalized data (SEAP),[28],61.7452
same,Raw data (SEAP),[28],11.7704
same,Normalized data (SEAP),[29],69.7498
same,Raw data (SEAP),[29],13.2963
same,Normalized data (SEAP),[30],80.5519
same,Raw data (SEAP),[30],15.3555
same,Normalized data (SEAP),[31],100
same,Raw data (SEAP),[31],19.0629
same,Normalized data (SEAP),[32],89.5017
same,Raw data (SEAP),[32],17.0616
same,Normalized data (SEAP),[33],75.6488
same,Raw data (SEAP),[33],14.4208
same,Normalized data (SEAP),[34],59.7156
same,Raw data (SEAP),[34],11.3835
same,Normalized data (SEAP),[35],3.575
same,Raw data (SEAP),[35],13.7218
same,Normalized data (SEAP),[36],3.97
same,Raw data (SEAP),[36],15.2365
same,Normalized data (SEAP),[37],6.118
same,Raw data (SEAP),[37],23.4789
same,Normalized data (SEAP),[38],19.9083
same,Raw data (SEAP),[38],76.4036
same,Normalized data (SEAP),[39],50.1718
same,Raw data (SEAP),[39],192.548
same,Normalized data (SEAP),[40],93.753
same,Raw data (SEAP),[40],359.804
same,Normalized data (SEAP),[41],100
same,Raw data (SEAP),[41],383.778
same,Normalized data (SEAP),[42],77.866
same,Raw data (SEAP),[42],298.833
same,Normalized data (SEAP),[43],35.1914
same,Raw data (SEAP),[43],135.057
same,Normalized data (SEAP),[44],13.8401
same,Raw data (SEAP),[44],15.4633
same,Normalized data (SEAP),[45],14.8573
same,Raw data (SEAP),[45],16.5999
same,Normalized data (SEAP),[46],15.6025
same,Raw data (SEAP),[46],17.4324
same,Normalized data (SEAP),[47],28.6773
same,Raw data (SEAP),[47],32.0407
same,Normalized data (SEAP),[48],48.5828
same,Raw data (SEAP),[48],54.2809
same,Normalized data (SEAP),[49],100
same,Raw data (SEAP),[49],111.729
same,Normalized data (SEAP),[50],98.9424
same,Raw data (SEAP),[50],110.547
same,Normalized data (SEAP),[51],75.2543
same,Raw data (SEAP),[51],84.0806
same,Normalized data (SEAP),[52],21.4009
same,Raw data (SEAP),[52],23.9109
same,Normalized data (SEAP),[53],4.916
same,Raw data (SEAP),[53],14.375
same,Normalized data (SEAP),[54],5.386
same,Raw data (SEAP),[54],15.7505
same,Normalized data (SEAP),[55],6.285
same,Raw data (SEAP),[55],18.3792
same,Normalized data (SEAP),[56],18.3149
same,Raw data (SEAP),[56],53.5545
same,Normalized data (SEAP),[57],44.7805
same,Raw data (SEAP),[57],130.943
same,Normalized data (SEAP),[58],92.9232
same,Raw data (SEAP),[58],271.716
same,Normalized data (SEAP),[59],100
same,Raw data (SEAP),[59],292.41
same,Normalized data (SEAP),[60],75.7485
same,Raw data (SEAP),[60],221.496
same,Normalized data (SEAP),[61],31.6477
same,Raw data (SEAP),[61],92.541
same,Normalized data (SEAP),[62],39.2835
same,Raw data (SEAP),[62],15.066
same,Normalized data (SEAP),[63],40.4811
same,Raw data (SEAP),[63],15.5253
same,Normalized data (SEAP),[64],41.5277
same,Raw data (SEAP),[64],15.9266
same,Normalized data (SEAP),[65],52.0376
same,Raw data (SEAP),[65],19.9574
same,Normalized data (SEAP),[66],75.9664
same,Raw data (SEAP),[66],29.1345
same,Normalized data (SEAP),[67],100
same,Raw data (SEAP),[67],38.3518
same,Normalized data (SEAP),[68],67.7678
same,Raw data (SEAP),[68],25.9902
same,Normalized data (SEAP),[69],51.723
same,Raw data (SEAP),[69],19.8367
same,Normalized data (SEAP),[70],31.0619
same,Raw data (SEAP),[70],11.9128
same,"SEAP, replicate values","CBPVene-v5-LD3v1, venetoclax 100 nM",98.3781 and 87.1331 and 45.1145
same,"SEAP, replicate values","CBPVene-v5-LD3v1, venetoclax 3160 nM",13.0779
same,"SEAP, replicate values","CBPVene-v5, venetoclax 100 nM",341.722 and 335.341
same,"Raw data Figure 5c, CBPVene-v4-LD3v1 (SEAP reporter raw value, single replicate)","Venetoclax 10000 nM, construct CBPVene-v4-LD3v1, three replicate columns",307.085 and 269.935 and 317.486
same,"Raw data Figure 5c, CBPVene-v4 (SEAP reporter raw value, single replicate)","Venetoclax 10000 nM, construct CBPVene-v4, three replicate columns",10.3692 and 8.227 and 12.3711
